This note sets out measurements from patent publication US7060822B1, “2-pyrazolin-5-ones” (Abbott GmbH & Co. KG, priority 1999, dated 2006).

For `Cc1cc(C)c(C=C2C(=O)NN=C2CCc2ccccc2)[nH]1` [Example 28, 4-[(3,5-Dimethylpyrrol-2-yl)methylene]-3-phenylethyl-2-pyrazolin-5-one], the melting point – broadly, the temperature of the solid-liquid transition – is 186 to 187 °C.

Compound `Cc1ccc(CCC2=NNC(=O)C2=Cc2ccc[nH]2)cc1` [Example 29, 3-(4-Methylphenylethyl)-4-[(pyrrol-2-yl)methylene]-2-pyrazolin-5-one] displayed a melting point of 153 to 154 °C.

With `Cc1cc(C)c(C=C2C(=O)NN=C2OC(C)C)[nH]1` [Example 30, 4-[(3,5-Dimethylpyrrol-2-yl)methylene]-3-isopropoxy-2-pyrazolin-5-one], the melting point lay within 176 to 177 °C.

Compound `CCOC1=NNC(=O)C1=Cc1ccc[nH]1` [Example 31, 3-Ethoxy-4-[(pyrrol-2-yl)methylene]-2-pyrazolin-5-one] displayed a melting point of 211 to 213 °C.

As to `O=C1NN=C(CCc2ccc([N+](=O)[O-])cc2)C1=Cc1ccc[nH]1` [Example 32, 3-(4-Nitrophenylethyl)-4-[(pyrrol-2-yl)methylene]-2-pyrazolin-5-one], the melting point was 224 to 226 °C.

Consider `O=C1NN=C(Nc2ccc(F)cc2)C1=Cc1ccc[nH]1` [Example 33, 3-(4-Fluorophenylamino)-4-[(pyrrol-2-yl)methylene]-2-pyrazolin-5-one], for which the melting point fell in the range of 272 to 273 °C.

`O=C1NN=C(CCc2ccc(Cl)cc2)C1=Cc1ccc[nH]1` [Example 34, 3-(4-Chlorophenylethyl)-4-[(pyrrol-2-yl)methylene]-2-pyrazolin-5-one]: the melting point lay within 193 to 194 °C.

`Cc1cc(C=C2C(=O)NN=C2OC(C)C)[nH]c1C` [Example 35, 4-[(4,5-Dimethylpyrrol-2-yl)methylene]-3-isopropoxy-2-pyrazolin-5-one] displayed a melting point of 195 to 197 °C.

In turn, `CCc1c(C)[nH]c(C=C2C(=O)NN=C2OC(C)C)c1C` [Example 36, 4-[(3,5-Dimethyl-4-ethylpyrrol-2-yl)methylene]-3-isopropoxy-2-pyrazolin-5-one] returned a melting point of 188 to 190 °C.

In turn, `CCc1c(C)[nH]c(C=C2C(=O)NN=C2CCc2ccccc2)c1C` [Example 37, 4-[(3,5-Dimethyl-4-ethylpyrrol-2-yl)methylene]-3-phenylethyl-2-pyrazolin-5-one] yielded a melting point of 168 to 170 °C.

Regarding `CC(C)OC1=NNC(=O)C1=Cc1cccn1CCCCO` [Example 38, 4-{[1-(4-Hydroxybutyl)pyrrol-2-yl]methylene}-3-isopropoxy-2-pyrazolin-5-one], the melting point was in the range of 138 to 140 °C.

As for `O=C1NN=C(OC2CCCC2)C1=Cc1ccc[nH]1` [Example 39, 3-Cyclopentyloxy-4-[(pyrrol-2-yl)methylene]-2-pyrazolin-5-one], the melting point lay within 201 to 203 °C.

For `Cc1c[nH]c(C=C2C(=O)NN=C2OC(C)C)c1` [Example 41, 3-Isopropoxy-4-[(4-methylpyrrol-2-yl)methylene]-2-pyrazolin-5-one], the melting point is 215 to 217 °C.

Compound `Cc1c[nH]c(C=C2C(=O)NN=C2CCc2ccc(N)cc2)c1` [Example 42, 3-(4-Aminophenylethyl)-4-[(4-methylpyrrol-2-yl)methylene]-2-pyrazolin-5-one] returned a melting point of 178 to 180 °C.

Take `CC(C)OC1=NNC(=O)C1=Cc1cccn1C` [Example 43, 3-Isopropoxy-4-[(1-methylpyrrol-2-yl)methylene]-2-pyrazolin-5-one]: the melting point lay within 199 to 201 °C.

The compound `Cc1ccc(C=C2C(=O)NN=C2OC(C)C)[nH]1` [Example 44, 3-Isopropoxy-4-[(5-methylpyrrol-2-yl)methylene]-2-pyrazolin-5-one] yielded a melting point of 128 to 130 °C.

`CCc1c(C)[nH]c(C=C2C(=O)NN=C2CCc2ccc(N)cc2)c1C` [Example 45, 3-(4-Aminophenylethyl)-4-[(3,5-dimethyl-4-ethylpyrrol-2-yl)methylene]-2-pyrazolin-5-one] registered a melting point of 183 to 185 °C.

On to `CCOC1=NNC(=O)C1=Cc1ccc(C)[nH]1` [Example 46, 3-Ethoxy-4-[(5-methylpyrrol-2-yl)methylene]2-pyrazolin-5-one], for which the melting point is 197 to 199 °C.

As to `CCc1c(C)[nH]c(C=C2C(=O)NN=C2CCc2ccc(C(N)=O)cc2)c1C` [Example 47, 3-(4-Carbamoylphenylethyl)-4-[(3,5-dimethyl-4-ethylpyrrol-2-yl)methylene]-2-pyrazolin-5-one], the melting point lay within 297 to 299 °C.

Turning to `CCOC(=O)c1c(C)[nH]c(C=C2C(=O)NN=C2OC(C)C)c1C` [Example 49, 4-[(3,5-Dimethyl-4-ethoxycarbonylpyrrol-2-yl)methylene]-3-isopropoxy-2-pyrazolin-5-one], the melting point lay within 226 to 228 °C.

As to `CCOC(=O)c1c(C)[nH]c(C=C2C(=O)NN=C2CCc2ccc(N)cc2)c1C` [Example 50, 3-(4-Aminophenylethyl)-4-[(3,5-dimethyl-4-ethoxycarbonylpyrrol-2-yl)methylene]-2-pyrazolin-5-one], the melting point fell in the range of 186 to 188 °C.

The compound `CCc1ccc(C=C2C(=O)NN=C2OC(C)C)[nH]1` [Example 51, 4-[(5-Ethylpyrrol-2-yl)methylene]-3-isopropoxy-2-pyrazolin-5-one] displayed a melting point of 119 to 121 °C.

Turning to `CCc1c(C)[nH]c(C=C2C(=O)NN=C2CCc2ccc(O)cc2)c1C` [Example 52, 4-[(3,5-Dimethyl-4-ethylpyrrol-2-yl)methylene]-3-(4-hydroxyphenylethyl)-2-pyrazolin-5-one], the melting point lay within 260 to 262 °C.

`CCOC(=O)CC1=NNC(=O)C1=Cc1ccc[nH]1` [Example 53, 3-(Ethoxycarbonylmethyl)-4-[(pyrrol-2-yl)methylene]-2-pyrazolin-5-one]: the melting point is 124 to 126 °C.

Turning to `COc1ccc(NC(=O)CC2=NNC(=O)C2=Cc2ccc[nH]2)cc1` [Example 54, 3-(4-Methoxyphenylaminocarbonylmethyl)-4-[(pyrrol-2-yl)methylene]-2-pyrazolin-5-one], the melting point was 240 to 242 °C.

`Cc1c[nH]c(C=C2C(=O)NN=C2C(C)C)c1CCC(=O)O` [Example 55, 4-{(3-(2-Carboxyethyl)-4-methylpyrrol-2-yl]methylene}-3-isopropyl-2-pyrazolin-5-one] displayed a melting point of 229 to 231 °C.

In turn, `O=C1NN=C(C2CCC2)C1=Cc1ccc[nH]1` [Example 57, 3-Cyclobutyl-4-[(pyrrol-2-yl)methylene]-2-pyrazolin-5-one] came in with a melting point of 150 to 152 °C.

Consider `O=C1NN=C(C2CC2)C1=Cc1cccn1-c1cc(Cl)cc(Cl)c1` [Example 59, 3-Cyclopropyl-4-[[1-(3,5-dichlorophenyl)pyrrol-2-yl)methylene]-2-pyrazolin-5-one], for which the melting point was in the range of 188 to 190 °C.

As to `CC1(C)C(C2=NNC(=O)C2=Cc2ccc[nH]2)C1(C)C` [Example 60, 4-[(Pyrrol-2-yl)methylene]-3-(2,2,3,3-tetramethylcyclopropyl)-2-pyrazolin-5-one], the melting point lay in the range of 160 to 162 °C.

The compound `Cc1cc(C)c(C=C2C(=O)NN=C2C2CC2)[nH]1` [Example 61, 3-Cyclopropyl-4-[(3,5-dimethylpyrrol-2-yl)methylene]-2-pyrazolin-5-one] came in with a melting point of 193 to 195 °C.

In turn, `O=C1NN=C(C2CCCC2)C1=Cc1ccc[nH]1` [Example 62, 3-Cyclopentyl-4-[(pyrrol-2-yl)methylene]-2-pyrazolin-5-one] had a melting point of 127 to 129 °C.

For `CC1CC1C1=NNC(=O)C1=Cc1ccc[nH]1` (stereo not shown) [Example 63, 3-(2-Methylcyclopropyl)-4-[(pyrrol-2-yl)methylene]-2-pyrazolin-5-one], the melting point is 132 to 133 °C.

The compound `CCc1c(C)[nH]c(C=C2C(=O)NN=C2C2CC2)c1C` [Example 66, 3-Cyclopropyl-4[(3,5-dimethyl-4-ethylpyrrol-2-yl)methylene]-2-pyrazolin-5-one] registered a melting point of 206 to 210 °C.

Compound `O=C1NN=C(c2ccc[nH]2)C1=Cc1ccc[nH]1` [Example 67, 3-(Pyrrol-2-yl)-4-[(pyrrol-2-yl)methylene]-2-pyrazolin-5-one] showed a melting point of 245 to 247 °C.

For `Cc1c[nH]c(C=C2C(=O)NN=C2C2CC2)c1` [Example 68, 3-Cyclopropyl-4-[(4-methylpyrrol-2-yl)methylene]-2-pyrazolin-5-one], the melting point lay in the range of 212 to 215 °C.

For `Cc1c[nH]c(C=C2C(=O)NN=C2c2nc3ccccc3s2)c1` [Example 69, 3-(Benzothiazol-2-yl)-4-[(4-methylpyrrol-2-yl)methylene]-2-pyrazolin-5-one], the melting point was 327 to 329 °C.

In turn, `Cc1ccc(C=C2C(=O)NN=C2C2CC2)[nH]1` [Example 72, 3-Cyclopropyl-4-[(5-methylpyrrol-2-yl)methylene]-2-pyrazolin-5-one] showed a melting point of 170 to 172 °C.

For the compound `CCc1ccc(C=C2C(=O)NN=C2C2CC2)[nH]1` [Example 74, 3-Cyclopropyl-4-[(5-ethylpyrrol-2-yl)methylene]-2-pyrazolin-5-one], the melting point fell in the range of 163 to 165 °C.

As for `CCOC(=O)c1c(C)[nH]c(C=C2C(=O)NN=C2C2CC2)c1C` [Example 75, 3-Cyclopropyl-4-[(3,5-dimethyl-4-ethoxycarbonylpyrrol-2-yl)methylene]-2-pyrazolin-5-one], the melting point was 240 to 242 °C.

`CC(C)OC1=NNC(=O)C1=Cc1ccc(-c2ccccc2)[nH]1` [Example 76, 3-Isopropoxy-4-[(5-phenylpyrrol-2-yl)methylene]-2-pyrazolin-5-one] yielded a melting point of 212 to 214 °C.

On to `O=C1NN=C(C2CC2)C1=Cc1cccn1CCCCO` [Example 81, 3-Cyclopropyl-4-{[1-(4-hydroxybutyl)pyrrol-2-yl]methylene]-2-pyrazolin-5-one], for which the melting point was 134 to 136 °C.

With `Cc1c(CCC(=O)O)c[nH]c1C=C1C(=O)NN=C1OC(C)C` [Example 82, 4-{[4-(2-Carboxyethyl)-3-methylpyrrol-2-yl]methylene}-3-isopropoxy-2-pyrazolin-5-one], the melting point lay within 267 to 269 °C.

Compound `Cc1[nH]c(C=C2C(=O)NN=C2OC(C)C)c(C)c1C(=O)O` [Example 83, 4-[(4-Carboxy-3,5-dimethylpyrrol-2-yl)methylene]-3-isopropoxy-2-pyrazolin-5-one] came in with a melting point of over 300 °C.
